Data from the NIST ThermoML archive (doi:10.1021/je030216r).
Numbers after ± are expanded uncertainties.

What was measured:
[1] = 293.15 K; 101.33 kPa; Liquid
[2] = Boiling temperature at pressure P; conditions: 100 kPa; Liquid; Ebulliometric method (Recirculating still)
[3] = refractive index (Na D-line) (dimensionless); conditions: 293.15 K; 101.33 kPa; Liquid; Standard Abbe refractometry

Row | mass density [1] [kg/m3] | Boiling temperature at pressure P [2] [°C] | refractive index [3] | Structure (SMILES)
1 | 1113.6 ± 5.1 | 197.48 ± 0.2 | 1.4328 ± 0.0008 | OCCO [1,2-ethanediol]
2 | 817.8 ± 5 | 128.40 ± 0.2 | 1.4095 ± 0.0007 | CCC(C)CO (centres undefined) [2-methyl-1-butanol]
3 | 808.1 ± 5 | 131.30 ± 0.2 | 1.4054 ± 0.0007 | CC(C)CCO [3-methylbutan-1-ol]
